Source: ChEMBL document CHEMBL4477252, “Optimization of microtubule affinity regulating kinase (MARK) inhibitors with improved physical properties” (Bioorg Med Chem Lett, 2016)

target: T1, Cytoplasmic tyrosine-protein kinase BMX (Homo sapiens, UniProt P51813); test: Inhibition of full-length recombinant human His-tagged BMX expressed in baculovirus expression system by Z'-LYTE assay; settings: not given
T1 sequence (P51813 whole entry): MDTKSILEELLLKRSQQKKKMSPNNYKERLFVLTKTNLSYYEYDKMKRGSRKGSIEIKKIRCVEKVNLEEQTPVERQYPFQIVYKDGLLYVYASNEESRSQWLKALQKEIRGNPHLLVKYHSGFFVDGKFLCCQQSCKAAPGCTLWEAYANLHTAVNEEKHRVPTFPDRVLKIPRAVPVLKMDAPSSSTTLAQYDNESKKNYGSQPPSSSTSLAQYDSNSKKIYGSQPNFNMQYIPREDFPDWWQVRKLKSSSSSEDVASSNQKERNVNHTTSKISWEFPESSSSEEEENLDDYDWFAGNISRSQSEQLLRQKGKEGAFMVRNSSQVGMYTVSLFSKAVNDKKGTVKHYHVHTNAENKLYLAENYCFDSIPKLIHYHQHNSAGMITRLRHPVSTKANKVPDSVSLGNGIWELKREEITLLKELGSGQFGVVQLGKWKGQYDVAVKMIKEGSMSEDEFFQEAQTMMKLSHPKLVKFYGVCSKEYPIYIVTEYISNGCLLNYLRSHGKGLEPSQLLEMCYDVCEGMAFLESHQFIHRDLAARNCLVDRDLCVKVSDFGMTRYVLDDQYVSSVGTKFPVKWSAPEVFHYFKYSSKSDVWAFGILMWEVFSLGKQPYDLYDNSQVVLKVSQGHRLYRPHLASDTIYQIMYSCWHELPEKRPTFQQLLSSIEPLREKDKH

Point of comparison: O=C(NCC(F)(F)F)c1cc(-c2cnn3cc(-c4ccc(OCCN5CCCCC5)cc4)cnc23)cs1, IC50 410 nM. Against it:
- Cn1cc(-c2cnc3c(-c4csc(C(=O)NCC(F)(F)F)c4)cnn3c2)cn1 — 1.5-fold lower, 270 nM
- Cc1sc(C(=O)N[C@@H]2[C@H](N)CCCC2(F)F)cc1-c1cnn2cc(Cl)cnc12 — 24-fold higher, 9800 nM
- Cn1cc(-c2cnc3c(-c4csc(C(=O)N[C@@H]5CCCC[C@@H]5N)c4)cnn3c2)cn1 (racemic) — 120-fold lower, 3.5 nM

target: Tyrosine-protein kinase Lck (Homo sapiens, UniProt P06239); test: Inhibition of full-length recombinant human His-tagged LCK expressed in baculovirus expression system by Z'-LYTE assay; settings: not given
Sequence (P06239 whole entry): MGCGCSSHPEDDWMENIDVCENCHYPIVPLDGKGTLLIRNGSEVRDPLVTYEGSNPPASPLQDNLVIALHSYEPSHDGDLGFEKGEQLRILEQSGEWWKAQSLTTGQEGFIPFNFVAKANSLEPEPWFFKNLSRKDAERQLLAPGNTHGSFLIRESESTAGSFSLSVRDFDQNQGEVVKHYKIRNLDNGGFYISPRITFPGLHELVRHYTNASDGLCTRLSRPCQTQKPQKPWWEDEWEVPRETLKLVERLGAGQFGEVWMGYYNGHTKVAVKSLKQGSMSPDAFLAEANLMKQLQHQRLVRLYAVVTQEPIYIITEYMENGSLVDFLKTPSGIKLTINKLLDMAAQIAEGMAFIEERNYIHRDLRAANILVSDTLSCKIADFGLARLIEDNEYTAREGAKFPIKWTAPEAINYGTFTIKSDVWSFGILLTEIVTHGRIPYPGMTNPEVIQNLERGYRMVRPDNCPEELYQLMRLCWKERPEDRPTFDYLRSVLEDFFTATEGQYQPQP

Point of comparison: Cn1cc(-c2cnc3c(-c4csc(C(=O)N[C@@H]5CCCC[C@@H]5N)c4)cnn3c2)cn1 (racemic), IC50 3.9 nM. Against it:
- Cn1cc(-c2cnc3c(-c4csc(C(=O)NCC(F)(F)F)c4)cnn3c2)cn1 — 9.5-fold higher, 37 nM
- Cc1sc(C(=O)N[C@@H]2[C@H](N)CCCC2(F)F)cc1-c1cnn2cc(Cl)cnc12 — 1300-fold higher, 5000 nM
- O=C(NCC(F)(F)F)c1cc(-c2cnn3cc(-c4ccc(OCCN5CCCCC5)cc4)cnc23)cs1 — 4.9-fold higher, 19 nM

target: Serine/threonine-protein kinase PAK 1 (Homo sapiens, UniProt Q13153); test: Inhibition of full-length recombinant human GST-tagged PAK1 expressed in baculovirus expression system by Z'-LYTE assay; settings: not given

Point of comparison: O=C(NCC(F)(F)F)c1cc(-c2cnn3cc(-c4ccc(OCCN5CCCCC5)cc4)cnc23)cs1, IC50 8300 nM. Against it:
- Cn1cc(-c2cnc3c(-c4csc(C(=O)NCC(F)(F)F)c4)cnn3c2)cn1 — within 1.5-fold, 6200 nM
- Cc1sc(C(=O)N[C@@H]2[C@H](N)CCCC2(F)F)cc1-c1cnn2cc(Cl)cnc12 — 4-fold lower, 2100 nM
- Cn1cc(-c2cnc3c(-c4csc(C(=O)N[C@@H]5CCCC[C@@H]5N)c4)cnn3c2)cn1 (racemic) — 350-fold lower, 24 nM

target: T2, MAP kinase-activated protein kinase 5 (Homo sapiens, UniProt Q8IW41); test: Inhibition of full-length recombinant human His-tagged MAPKAPK5 expressed in baculovirus expression system by Z'-LYTE assay; settings: not given
T2 sequence (Q8IW41 whole entry): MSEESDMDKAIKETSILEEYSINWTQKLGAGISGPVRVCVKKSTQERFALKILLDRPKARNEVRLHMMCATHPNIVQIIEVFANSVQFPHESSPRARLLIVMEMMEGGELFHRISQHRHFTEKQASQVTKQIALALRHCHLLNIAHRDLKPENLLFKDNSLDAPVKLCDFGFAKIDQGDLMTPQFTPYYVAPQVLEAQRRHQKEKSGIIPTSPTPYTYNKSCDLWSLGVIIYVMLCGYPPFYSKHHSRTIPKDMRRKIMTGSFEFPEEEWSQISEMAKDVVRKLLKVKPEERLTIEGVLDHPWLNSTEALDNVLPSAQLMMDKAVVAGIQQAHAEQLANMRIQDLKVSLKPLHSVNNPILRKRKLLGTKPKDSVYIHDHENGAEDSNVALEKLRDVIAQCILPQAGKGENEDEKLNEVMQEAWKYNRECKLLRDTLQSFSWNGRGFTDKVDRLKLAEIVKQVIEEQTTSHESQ

Point of comparison: Cn1cc(-c2cnc3c(-c4csc(C(=O)N[C@@H]5CCCC[C@@H]5N)c4)cnn3c2)cn1 (racemic), IC50 1400 nM. Against it:
- Cn1cc(-c2cnc3c(-c4csc(C(=O)NCC(F)(F)F)c4)cnn3c2)cn1 — 14-fold higher, 19000 nM
- Cc1sc(C(=O)N[C@@H]2[C@H](N)CCCC2(F)F)cc1-c1cnn2cc(Cl)cnc12 — higher, > 100000 nM
- O=C(NCC(F)(F)F)c1cc(-c2cnn3cc(-c4ccc(OCCN5CCCCC5)cc4)cnc23)cs1 — 6.9-fold higher, 9600 nM

target: T3, 3-phosphoinositide-dependent protein kinase 1 (Homo sapiens, UniProt O15530); test: Inhibition of full-length recombinant human His-tagged PDK1 expressed in baculovirus expression system by Z'-LYTE assay; settings: not given
T3 sequence (O15530 whole entry): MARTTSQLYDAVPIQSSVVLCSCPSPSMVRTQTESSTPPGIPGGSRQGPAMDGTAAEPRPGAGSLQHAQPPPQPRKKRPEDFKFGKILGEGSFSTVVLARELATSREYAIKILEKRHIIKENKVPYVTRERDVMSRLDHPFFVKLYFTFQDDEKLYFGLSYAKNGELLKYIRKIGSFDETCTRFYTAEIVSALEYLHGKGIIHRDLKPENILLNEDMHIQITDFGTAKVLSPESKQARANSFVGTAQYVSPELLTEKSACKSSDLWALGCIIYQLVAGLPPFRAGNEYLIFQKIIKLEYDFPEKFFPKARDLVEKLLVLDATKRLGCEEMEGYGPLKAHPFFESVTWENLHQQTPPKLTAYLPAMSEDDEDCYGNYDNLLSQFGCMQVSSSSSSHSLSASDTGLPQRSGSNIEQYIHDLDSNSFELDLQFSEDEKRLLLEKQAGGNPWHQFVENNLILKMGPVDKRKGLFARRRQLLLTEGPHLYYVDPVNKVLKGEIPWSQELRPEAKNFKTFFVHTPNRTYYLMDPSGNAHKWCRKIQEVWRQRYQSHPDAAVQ

Point of comparison: O=C(NCC(F)(F)F)c1cc(-c2cnn3cc(-c4ccc(OCCN5CCCCC5)cc4)cnc23)cs1, IC50 130 nM. Against it:
- Cn1cc(-c2cnc3c(-c4csc(C(=O)NCC(F)(F)F)c4)cnn3c2)cn1 — 2.5-fold lower, 53 nM
- Cc1sc(C(=O)N[C@@H]2[C@H](N)CCCC2(F)F)cc1-c1cnn2cc(Cl)cnc12 — 2.5-fold higher, 330 nM
- Cn1cc(-c2cnc3c(-c4csc(C(=O)N[C@@H]5CCCC[C@@H]5N)c4)cnn3c2)cn1 (racemic) — 6.5-fold lower, 20 nM

target: AMP-activated protein kinase (AMPK) alpha-1/beta-1/gamma-1 (Homo sapiens, UniProt P54619+Q13131+Q9Y478); test: Inhibition of full-length recombinant human GST and His-tagged AMPK alpha1/beta1/gamma1 expressed in baculovirus expression system by LanthaScreen assay; settings: not given

Point of comparison: Cc1sc(C(=O)N[C@@H]2[C@H](N)CCCC2(F)F)cc1-c1cnn2cc(Cl)cnc12, IC50 53 nM. Against it:
- Cn1cc(-c2cnc3c(-c4csc(C(=O)NCC(F)(F)F)c4)cnn3c2)cn1 — 2-fold lower, 26 nM
- O=C(NCC(F)(F)F)c1cc(-c2cnn3cc(-c4ccc(OCCN5CCCCC5)cc4)cnc23)cs1 — lower, < 10 nM
- Cn1cc(-c2cnc3c(-c4csc(C(=O)N[C@@H]5CCCC[C@@H]5N)c4)cnn3c2)cn1 (racemic) — 12-fold lower, 4.6 nM

target: Epidermal growth factor receptor (Homo sapiens, UniProt P00533); test: Inhibition of recombinant human His-tagged EGFR expressed in mammalian expression system by Z'-LYTE assay; settings: not given

Point of comparison: Cn1cc(-c2cnc3c(-c4csc(C(=O)N[C@@H]5CCCC[C@@H]5N)c4)cnn3c2)cn1 (racemic), IC50 340 nM. Against it:
- Cn1cc(-c2cnc3c(-c4csc(C(=O)NCC(F)(F)F)c4)cnn3c2)cn1 — 82-fold higher, 28000 nM
- Cc1sc(C(=O)N[C@@H]2[C@H](N)CCCC2(F)F)cc1-c1cnn2cc(Cl)cnc12 — higher, > 100000 nM
- O=C(NCC(F)(F)F)c1cc(-c2cnn3cc(-c4ccc(OCCN5CCCCC5)cc4)cnc23)cs1 — 3.2-fold higher, 1100 nM

target: High affinity nerve growth factor receptor (Homo sapiens, UniProt P04629); test: Inhibition of recombinant human His-tagged cytoplasmic NTRK1 expressed in baculovirus expression system by Z'-LYTE assay; settings: not given
Sequence (P04629 whole entry): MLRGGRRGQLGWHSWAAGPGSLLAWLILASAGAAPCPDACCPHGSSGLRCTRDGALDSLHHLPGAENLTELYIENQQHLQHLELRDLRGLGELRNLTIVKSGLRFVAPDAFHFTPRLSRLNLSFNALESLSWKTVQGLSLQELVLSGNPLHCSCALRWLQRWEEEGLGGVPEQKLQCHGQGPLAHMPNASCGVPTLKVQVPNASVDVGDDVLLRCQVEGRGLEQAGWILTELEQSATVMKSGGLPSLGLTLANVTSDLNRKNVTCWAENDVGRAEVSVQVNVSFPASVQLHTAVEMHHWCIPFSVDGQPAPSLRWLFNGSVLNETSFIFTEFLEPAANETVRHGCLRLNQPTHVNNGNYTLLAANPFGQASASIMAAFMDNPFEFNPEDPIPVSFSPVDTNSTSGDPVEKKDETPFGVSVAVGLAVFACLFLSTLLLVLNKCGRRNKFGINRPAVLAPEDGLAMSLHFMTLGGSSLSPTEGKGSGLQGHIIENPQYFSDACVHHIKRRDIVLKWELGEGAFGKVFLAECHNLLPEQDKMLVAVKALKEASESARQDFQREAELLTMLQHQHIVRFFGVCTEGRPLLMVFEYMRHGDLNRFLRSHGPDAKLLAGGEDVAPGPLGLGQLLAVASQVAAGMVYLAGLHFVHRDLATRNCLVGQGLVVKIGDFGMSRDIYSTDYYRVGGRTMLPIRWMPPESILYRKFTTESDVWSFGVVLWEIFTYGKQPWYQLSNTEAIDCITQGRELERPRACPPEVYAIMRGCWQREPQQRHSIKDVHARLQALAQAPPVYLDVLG

Point of comparison: O=C(NCC(F)(F)F)c1cc(-c2cnn3cc(-c4ccc(OCCN5CCCCC5)cc4)cnc23)cs1, IC50 310 nM. Against it:
- Cn1cc(-c2cnc3c(-c4csc(C(=O)NCC(F)(F)F)c4)cnn3c2)cn1 — 1.7-fold higher, 540 nM
- Cc1sc(C(=O)N[C@@H]2[C@H](N)CCCC2(F)F)cc1-c1cnn2cc(Cl)cnc12 — 6.8-fold higher, 2100 nM
- Cn1cc(-c2cnc3c(-c4csc(C(=O)N[C@@H]5CCCC[C@@H]5N)c4)cnn3c2)cn1 (racemic) — 6.2-fold lower, 50 nM

test system: not listed separately; test: Clearance in Sprague-Dawley rat at 1 mL/kg, iv administered through catheter measured after 24 hrs by LC-MS/MS analysis; assay type: ADME, organism-based; settings: in vivo

Point of comparison: Cn1cc(-c2cnc3c(-c4csc(C(=O)NCC(F)(F)F)c4)cnn3c2)cn1, clearance 7.4 mL/min/kg. Against it:
- Cc1sc(C(=O)N[C@@H]2[C@H](N)CCCC2(F)F)cc1-c1cnn2cc(Cl)cnc12 — 2.6-fold higher, 19 mL/min/kg
- O=C(NCC(F)(F)F)c1cc(-c2cnn3cc(-c4ccc(OCCN5CCCCC5)cc4)cnc23)cs1 — 4.3-fold higher, 32 mL/min/kg

target: MDR1 (ABCB1, P-glycoprotein) (Homo sapiens, UniProt P08183); test: Substrate activity at human MDR1 expressed in LLC-PK1 cells assessed as efflux ratio of permeability across basolateral to apical over apical to basolateral side at 5 uM; assay type: ADME, cell-based; settings: not given
Sequence (P08183 whole entry): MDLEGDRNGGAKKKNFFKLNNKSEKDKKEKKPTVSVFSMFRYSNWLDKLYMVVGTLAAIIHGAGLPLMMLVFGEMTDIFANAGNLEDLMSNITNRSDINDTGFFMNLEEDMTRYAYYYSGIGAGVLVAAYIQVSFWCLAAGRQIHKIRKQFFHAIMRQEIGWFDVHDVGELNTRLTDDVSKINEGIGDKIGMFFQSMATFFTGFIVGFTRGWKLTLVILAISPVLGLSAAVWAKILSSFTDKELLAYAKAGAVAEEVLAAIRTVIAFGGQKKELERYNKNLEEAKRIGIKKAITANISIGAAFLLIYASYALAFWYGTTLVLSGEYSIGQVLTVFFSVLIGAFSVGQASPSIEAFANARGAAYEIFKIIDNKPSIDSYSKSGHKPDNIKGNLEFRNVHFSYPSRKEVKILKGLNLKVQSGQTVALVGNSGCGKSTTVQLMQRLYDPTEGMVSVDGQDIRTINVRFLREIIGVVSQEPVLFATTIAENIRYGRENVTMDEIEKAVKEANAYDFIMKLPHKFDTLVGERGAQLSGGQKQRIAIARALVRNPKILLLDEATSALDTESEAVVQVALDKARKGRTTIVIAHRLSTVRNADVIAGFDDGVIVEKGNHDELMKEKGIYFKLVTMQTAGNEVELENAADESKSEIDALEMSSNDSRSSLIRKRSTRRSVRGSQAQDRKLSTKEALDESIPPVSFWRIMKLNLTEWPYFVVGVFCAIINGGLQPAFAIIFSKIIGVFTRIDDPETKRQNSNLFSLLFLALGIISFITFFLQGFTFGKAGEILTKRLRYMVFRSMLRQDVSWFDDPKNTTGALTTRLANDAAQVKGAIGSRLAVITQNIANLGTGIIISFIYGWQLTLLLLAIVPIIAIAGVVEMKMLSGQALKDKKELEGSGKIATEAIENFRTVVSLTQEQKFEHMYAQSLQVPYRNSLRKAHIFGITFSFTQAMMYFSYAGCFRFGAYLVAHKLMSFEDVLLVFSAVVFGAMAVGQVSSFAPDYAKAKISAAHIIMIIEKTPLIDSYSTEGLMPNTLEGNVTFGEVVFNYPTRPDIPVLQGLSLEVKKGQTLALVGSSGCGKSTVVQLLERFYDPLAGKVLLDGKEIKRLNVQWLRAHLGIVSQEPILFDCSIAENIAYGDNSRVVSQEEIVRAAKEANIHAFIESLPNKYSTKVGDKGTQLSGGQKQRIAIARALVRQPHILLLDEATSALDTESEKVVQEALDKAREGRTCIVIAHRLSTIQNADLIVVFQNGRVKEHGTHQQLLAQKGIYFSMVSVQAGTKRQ

Point of comparison: Cn1cc(-c2cnc3c(-c4csc(C(=O)N[C@@H]5CCCC[C@@H]5N)c4)cnn3c2)cn1 (racemic), efflux ratio at 5 µM 24. Against it:
- Cn1cc(-c2cnc3c(-c4csc(C(=O)NCC(F)(F)F)c4)cnn3c2)cn1 — lower, 1.4
- Cc1sc(C(=O)N[C@@H]2[C@H](N)CCCC2(F)F)cc1-c1cnn2cc(Cl)cnc12 — lower, 2.9

target: Tyrosine-protein kinase JAK2 (Homo sapiens, UniProt O60674); test: Inhibition of recombinant human GST-tagged cytoplasmic JAK2 (809 to 1153 residues) expressed in baculovirus expression system by Z'-LYTE assay; settings: not given
Sequence (O60674 whole entry, the tested form may be a part): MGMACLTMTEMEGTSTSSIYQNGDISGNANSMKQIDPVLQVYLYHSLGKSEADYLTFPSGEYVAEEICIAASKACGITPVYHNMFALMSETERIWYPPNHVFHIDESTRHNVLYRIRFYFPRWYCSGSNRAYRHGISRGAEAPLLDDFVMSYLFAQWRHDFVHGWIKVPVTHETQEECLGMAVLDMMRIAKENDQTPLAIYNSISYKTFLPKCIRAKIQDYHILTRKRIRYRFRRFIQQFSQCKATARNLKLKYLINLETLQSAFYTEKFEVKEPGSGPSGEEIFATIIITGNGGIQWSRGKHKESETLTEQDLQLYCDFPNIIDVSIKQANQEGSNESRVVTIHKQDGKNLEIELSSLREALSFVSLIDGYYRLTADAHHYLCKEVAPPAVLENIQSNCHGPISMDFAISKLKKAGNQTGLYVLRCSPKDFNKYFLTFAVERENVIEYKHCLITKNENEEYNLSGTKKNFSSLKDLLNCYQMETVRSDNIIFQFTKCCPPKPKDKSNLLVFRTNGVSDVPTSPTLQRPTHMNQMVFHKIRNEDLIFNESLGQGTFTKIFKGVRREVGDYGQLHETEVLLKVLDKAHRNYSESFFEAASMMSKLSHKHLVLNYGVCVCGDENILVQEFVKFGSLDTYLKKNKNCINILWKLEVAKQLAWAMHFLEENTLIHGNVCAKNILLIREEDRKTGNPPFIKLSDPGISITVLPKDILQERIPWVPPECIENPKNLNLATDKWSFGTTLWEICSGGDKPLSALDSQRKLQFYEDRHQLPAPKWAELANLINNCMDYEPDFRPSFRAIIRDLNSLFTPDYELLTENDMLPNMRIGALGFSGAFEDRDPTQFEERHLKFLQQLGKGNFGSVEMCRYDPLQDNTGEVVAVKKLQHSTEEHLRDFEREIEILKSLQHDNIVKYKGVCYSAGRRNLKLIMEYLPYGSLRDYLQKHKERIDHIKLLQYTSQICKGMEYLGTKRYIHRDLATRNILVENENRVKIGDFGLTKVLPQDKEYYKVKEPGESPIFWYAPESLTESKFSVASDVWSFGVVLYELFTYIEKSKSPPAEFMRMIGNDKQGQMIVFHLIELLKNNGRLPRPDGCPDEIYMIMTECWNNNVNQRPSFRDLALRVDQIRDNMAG

Point of comparison: O=C(NCC(F)(F)F)c1cc(-c2cnn3cc(-c4ccc(OCCN5CCCCC5)cc4)cnc23)cs1, IC50 2400 nM. Against it:
- Cn1cc(-c2cnc3c(-c4csc(C(=O)NCC(F)(F)F)c4)cnn3c2)cn1 — 2-fold lower, 1200 nM
- Cc1sc(C(=O)N[C@@H]2[C@H](N)CCCC2(F)F)cc1-c1cnn2cc(Cl)cnc12 — 1.8-fold higher, 4400 nM
- Cn1cc(-c2cnc3c(-c4csc(C(=O)N[C@@H]5CCCC[C@@H]5N)c4)cnn3c2)cn1 (racemic) — 38-fold lower, 64 nM

target: Interleukin-1 receptor-associated kinase 1 (Homo sapiens, UniProt P51617); test: Inhibition of recombinant human GST-tagged IRAK1 (194 to 712 residues) catalytic domain expressed in baculovirus expression system by Adapta assay; settings: not given
Sequence (P51617 whole entry, the tested form may be a part): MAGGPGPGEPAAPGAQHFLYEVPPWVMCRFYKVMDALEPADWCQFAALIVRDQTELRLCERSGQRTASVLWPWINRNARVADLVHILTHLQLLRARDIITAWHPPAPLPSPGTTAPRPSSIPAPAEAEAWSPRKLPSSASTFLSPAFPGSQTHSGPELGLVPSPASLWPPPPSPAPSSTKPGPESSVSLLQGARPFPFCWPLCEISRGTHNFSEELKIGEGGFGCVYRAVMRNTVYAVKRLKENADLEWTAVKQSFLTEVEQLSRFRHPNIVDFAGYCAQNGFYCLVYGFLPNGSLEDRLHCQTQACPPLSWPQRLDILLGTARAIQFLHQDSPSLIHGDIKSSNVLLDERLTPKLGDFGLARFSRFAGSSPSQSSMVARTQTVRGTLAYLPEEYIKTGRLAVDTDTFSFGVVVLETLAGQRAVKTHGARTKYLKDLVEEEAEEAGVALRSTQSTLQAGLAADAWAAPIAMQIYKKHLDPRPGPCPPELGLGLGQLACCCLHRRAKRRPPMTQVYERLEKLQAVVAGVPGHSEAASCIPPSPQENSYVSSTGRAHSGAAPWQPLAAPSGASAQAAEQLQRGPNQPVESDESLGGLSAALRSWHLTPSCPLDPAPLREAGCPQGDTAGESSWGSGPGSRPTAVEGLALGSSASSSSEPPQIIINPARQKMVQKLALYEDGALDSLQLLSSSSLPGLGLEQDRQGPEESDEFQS

Point of comparison: Cn1cc(-c2cnc3c(-c4csc(C(=O)N[C@@H]5CCCC[C@@H]5N)c4)cnn3c2)cn1 (racemic), IC50 9 nM. Against it:
- Cn1cc(-c2cnc3c(-c4csc(C(=O)NCC(F)(F)F)c4)cnn3c2)cn1 — 2.1-fold higher, 19 nM
- Cc1sc(C(=O)N[C@@H]2[C@H](N)CCCC2(F)F)cc1-c1cnn2cc(Cl)cnc12 — 210-fold higher, 1900 nM
- O=C(NCC(F)(F)F)c1cc(-c2cnn3cc(-c4ccc(OCCN5CCCCC5)cc4)cnc23)cs1 — not separable, < 10 nM

target: Mitogen-activated protein kinase 9 (Homo sapiens, UniProt P45984); test: Inhibition of full-length recombinant human His-tagged MAPK9 expressed in baculovirus expression system by Z'-LYTE assay; settings: not given
Sequence (P45984 whole entry): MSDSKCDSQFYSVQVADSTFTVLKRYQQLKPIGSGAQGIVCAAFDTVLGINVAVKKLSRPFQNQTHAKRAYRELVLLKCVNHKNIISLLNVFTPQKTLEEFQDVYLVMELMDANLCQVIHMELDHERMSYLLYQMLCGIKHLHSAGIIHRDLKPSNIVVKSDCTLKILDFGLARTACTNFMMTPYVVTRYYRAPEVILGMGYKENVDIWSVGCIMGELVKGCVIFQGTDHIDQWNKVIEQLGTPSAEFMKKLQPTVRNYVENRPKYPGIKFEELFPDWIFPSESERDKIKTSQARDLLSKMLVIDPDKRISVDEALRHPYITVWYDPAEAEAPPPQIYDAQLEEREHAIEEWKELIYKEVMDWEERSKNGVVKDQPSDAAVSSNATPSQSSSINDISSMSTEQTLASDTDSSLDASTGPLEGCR

Point of comparison: Cc1sc(C(=O)N[C@@H]2[C@H](N)CCCC2(F)F)cc1-c1cnn2cc(Cl)cnc12, IC50 4400 nM. Against it:
- Cn1cc(-c2cnc3c(-c4csc(C(=O)NCC(F)(F)F)c4)cnn3c2)cn1 — 2.6-fold lower, 1700 nM
- O=C(NCC(F)(F)F)c1cc(-c2cnn3cc(-c4ccc(OCCN5CCCCC5)cc4)cnc23)cs1 — 5.2-fold lower, 850 nM
- Cn1cc(-c2cnc3c(-c4csc(C(=O)N[C@@H]5CCCC[C@@H]5N)c4)cnn3c2)cn1 (racemic) — 6.9-fold lower, 640 nM
